Where two headings read alike, the source gives them in different places.
How the values were obtained:
[1] = system: α7 integrin (LacZ reporter in α7+/LacZ myotubes); assay: Myotube α7 integrin FDG assay (Burkin assay in myotubes, 96-well); type: cell-based, mouse; settings: myotubes; for MT FOLD INCREASE: maximum response; for EC50: nonlinear regression of dose-response curves, read-out: EC50 α7+/LacZ MT
[2] = system: α7 integrin (LacZ reporter in α7LacZ+/− myoblasts); assay: qHTS of the LOPAC library and MLSMR (online screen, α7LacZ+/− myoblasts); settings: for Online Screen Fold-change / Online Screen Score: MLSMR qHTS, myoblasts

SMILES	MT FOLD INCREASE [1]	EC50 [1]	Online Screen Fold-change [2]	Online Screen Score [2]	activation at 0.307 µM ([2]; Mus musculus, Myoblast, 48 h, read-out: Activity at 0.307 uM [%] **)	activation at 1.53 µM ([2]; Mus musculus, Myoblast, 48 h, read-out: Activity at 1.530 uM [%] **)	activation at 7.66 µM ([2]; Mus musculus, Myoblast, 48 h, read-out: Activity at 7.660 uM [%] **)	activation at 38.3 µM ([2]; Mus musculus, Myoblast, 48 h, read-out: Activity at 38.30uM [%] **)	Emax ([2]; Mus musculus, Myoblast, 48 h, read-out: Fit Infinite Activity [%])	EC50 ([2]; Mus musculus, Myoblast, read-out: Fit LogAC50 (converted))	Emax ([2]; Mus musculus, Myoblast, read-out: Max Response [%])
O=C(Nc1ccc(N2CCN(C(=O)c3ccccc3F)CC2)cc1)c1cncc(Br)c1 [MLS001060533]	1.5 fold	4.7 µM	1.9	42	–	–	–	–	–	–	–
CN(C)c1ccnc2sc(C(N)=O)c(N)c12 [MLS000532969]	–	2.2 µM	–	44	–	–	–	–	–	–	–
CC1CCCCN1c1ncnc(N)c1[N+](=O)[O-] (stereo not drawn) [MLS000683234]	1.7 fold	27 µM	2.6	46	–	–	–	–	–	–	–
C[C@H]1CNC(=O)c2c(C(=O)Nc3ccc(CNC(=O)OC(C)(C)C)cc3)ncn21 [MLS003126425]	2.0 fold	7 µM	1.9	43	–	–	–	–	–	–	–
CN(C)CCNc1ncnc2sc(-c3ccccc3)cc12 [Compound 163]	–	–	–	–	-0.804%	-0.389%	19.4%	78.1%	78.3%	10 µM	78.1%
